Data from ChEMBL document CHEMBL1781888, “Marianins A and B, prenylated phenylpropanoids from Mariannaea camptospora” (J Nat Prod, 2011).
≈ marks a conversion by molar mass, not a printed value. Calls of active or inactive are those of the source. The rule behind the calls is not given here.

What was measured:
MCF7 = assay: Cytotoxicity against human MCF7 cells after 48 hrs by MTT assay; assay type: functional, cell-based; conditions: MCF7, 48 h
Escherichia coli = assay: Antibacterial activity against Escherichia coli NIH-JC2 at 30 microg/mL; assay type: functional, organism-based
Micrococcus luteus = assay: Antibacterial activity against Micrococcus luteus ATCC 9343; assay type: functional
Candida albicans = assay: Antifungal activity against Candida albicans IFO1594 at 30 microg/mL; assay type: functional, organism-based
HeLa = assay: Cytotoxicity against human HeLa cells after 48 hrs by MTT assay; assay type: functional, cell-based

MIC (Micrococcus luteus) [µg/mL] | SMILES | IC50 (MCF7) [µM] | inhibition (Escherichia coli) | inhibition (Candida albicans) | IC50 (HeLa) [µM]
15 (≈ 45.7 µM) | CC(C)=CCOc1cc(C)c2c(OCC=C(C)C)cc(=O)oc2c1 [MARIANIN A] | 39 | inactive | inactive | 34
30 (≈ 99.2 µM) | C=CC(C)(C)CC(=O)c1c(C)cc(OCC=C(C)C)cc1O [MARIANIN B] | > 100 | inactive | inactive | > 100
